Source: ChEMBL document CHEMBL1201862, “PubChem BioAssay data set” (2004)
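Test compounds were applied to cells in 96-well plates for 48 hours at 5 doses. Abbreviation: GI50, concentration required for 50% inhibition of growth.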 Active and inactive are the calls of the source. Rule as the data show it: active = GI50 up to about 1.1 µM and inactive = higher.

Assays:
Assay in all cases: DTP human tumour cell line panel, 48 h
UACC-62 = system: UACC-62
A498 = system: A498
HOP-92 = system: HOP-92
SNB-19 = system: SNB-19
EKVX = system: EKVX
SNB-75 = system: SNB-75
HT-29 = system: HT-29
RPMI-8226 = system: RPMI-8226
K562 = system: K562
ACHN = system: ACHN
KM12 = system: KM12
CAKI-1 = system: CAKI-1
786-0 = system: 786-0
SK-MEL-5 = system: SK-MEL-5
A549 = system: A549
Malme-3M = system: Malme-3M
LOX IMVI = system: LOX IMVI

Measured: GI50

CCOC(=O)C1(c2ccccc2)CCCNCC1 (configuration not stated)
inactive: UACC-62 > 100 µM | A498 45.8 µM | HOP-92 75.2 µM | SNB-19 > 100 µM | EKVX > 100 µM | SNB-75 > 100 µM | HT-29 77.8 µM | RPMI-8226 88.1 µM | K562 > 100 µM | ACHN 85.9 µM | KM12 > 100 µM | CAKI-1 > 100 µM | 786-0 > 100 µM | SK-MEL-5 50.7 µM | A549 > 100 µM | Malme-3M > 100 µM | LOX IMVI > 100 µM

O=[N+]([O-])c1cc(I)cc(/C=N/NS(=O)(=O)c2ccc(F)cc2)c1O
inactive: UACC-62 20.3 µM | A498 36.1 µM | HOP-92 18.3 µM | SNB-19 31 µM | EKVX 30.7 µM | SNB-75 25 µM | HT-29 18.7 µM | RPMI-8226 22.1 µM | K562 21.6 µM | ACHN 30.7 µM | KM12 25.5 µM | CAKI-1 26.2 µM | 786-0 28.4 µM | SK-MEL-5 22.5 µM | A549 35.5 µM | Malme-3M 21.2 µM | LOX IMVI 27 µM

CC(=O)CCn1ncc(Cl)c(Cl)c1=O
inactive: UACC-62 17.2 µM | A498 24.9 µM | HOP-92 17 µM | SNB-19 18 µM | EKVX 18.6 µM | SNB-75 34.4 µM | HT-29 14.1 µM | RPMI-8226 14.2 µM | K562 3.51 µM | ACHN 17 µM | KM12 17.7 µM | CAKI-1 1.91 µM | 786-0 20.5 µM | SK-MEL-5 19.2 µM | A549 23 µM | Malme-3M 20.7 µM | LOX IMVI 15.6 µM

O=[N+]([O-])c1ccc(-c2csc(=[N+]3CCCCC3)s2)cc1
inactive: UACC-62 34.4 µM | A498 2.18 µM | HOP-92 26.1 µM | SNB-19 4.88 µM | EKVX 18 µM | SNB-75 3.61 µM | HT-29 6.04 µM | RPMI-8226 20.2 µM | K562 9.71 µM | ACHN 40.6 µM | KM12 4.13 µM | CAKI-1 75.7 µM | 786-0 34.4 µM | SK-MEL-5 5.85 µM | A549 1.93 µM | Malme-3M 12.1 µM | LOX IMVI 26.1 µM

CC1OC(OC2C(OC(=O)[C@]34CCC(C)(C)CC3C3=CCC5[C@@]6(C)C[C@H](O)[C@H](OC7OC(COC8OC(CO)C(O)C(O)C8O)C(O)C(O)C7O)[C@@](C)(C(=O)O)C6CC[C@@]5(C)C3(C)CC4)OCC(O)C2O)C(O)C(O)C1OC1OCC(O)C(O)C1O (some centres not stated)
inactive: UACC-62 > 100 µM | A498 > 100 µM | HOP-92 > 100 µM | SNB-19 > 100 µM | EKVX > 100 µM | SNB-75 > 100 µM | HT-29 > 100 µM | RPMI-8226 > 100 µM | K562 > 100 µM | ACHN > 100 µM | KM12 > 100 µM | CAKI-1 > 100 µM | 786-0 > 100 µM | SK-MEL-5 > 100 µM | A549 > 100 µM | Malme-3M > 100 µM | LOX IMVI > 100 µM

CC(C)(C)CC(C)(C)c1ccc(OCCOCC[N+](C)(C)Cc2ccccc2)cc1 [BENZETHONIUM CHLORIDE]
inactive: UACC-62 1.36 µM | A498 16.6 µM | HOP-92 1.88 µM | SNB-19 3.1 µM | EKVX 4.2 µM | SNB-75 2.43 µM | HT-29 1.6 µM | RPMI-8226 1.29 µM | K562 2.19 µM | ACHN 11.6 µM | KM12 1.61 µM | CAKI-1 10.1 µM | 786-0 5.01 µM | SK-MEL-5 1.39 µM | A549 8.71 µM | Malme-3M 1.52 µM | LOX IMVI 1.42 µM
